In brackets after ≈: the same amount, converted by molar mass. Where a SMILES comes first, the peptide text is derived from it.
Columns and labels:
E. coli, ATCC 25922 = experiment: Gel-overlay antibacterial assay; type: cell-based, Escherichia coli; conditions: 10 μg peptide per lane, AU-PAGE gel overlaid with E. coli, 18 hr
E. coli, ATTC 25922 = experiment: Lawn-spotting antibacterial assay (E. coli); type: cell-based, Escherichia coli; conditions: 5 μl spotted, inactive segments up to 1 mg/ml
[1] = test system: S. typhimurium, KSU isolate 7; experiment: Lawn-spotting antibacterial assay (S. typhimurium); type: cell-based, Salmonella typhimurium; conditions: 5 μl spotted, inactive segments up to 1 mg/ml
Salmonella choleraesuis = type: cell-based
Description: Plates were incubated at 37° C. for 18 hr. […] Viable bacteria were counted. Tests were repeated on three different days. […] The results were expressed as the mean ± standard deviation. […] S. choleraesuis, ATCC 6962 was used in this experiment. […] Slides were stained with LeukoStat solutions (Fisher, Pittsburgh, Pa.). […] At least 200 neutrophils were examined. […] Tests were repeated on three different days. Results were expressed as the mean±standard deviation.

[2] = test system: rat intestinal epithelial cell line, IEC-6; type: cell-based
Description: Influence of PR-26 and PR-39 on intestinal epithelial cells. A nonradioactive assay based on the cellular conversion by viable cells of a tetrazolium salt into a blue formazan product was used to determine if PR-26 or PR-39 were toxic to intestinal epithelial cells. Ninety-six-well microtiter plates were seeded with the rat intestinal epithelial cell line, IEC-6, (5×10^4 cells/well) in DMEM containing 10% fetal bovine serum, 1% antibiotic/antimycotic, and […], and incubated at 37° C. for three days to achieve confluency. […] Well contents then were aspirated and monolayers were washed with medium. Medium (100 μl) and 15 μl of dye solution (Promega, Madison, Wis.) were added to each well and plates were incubated for 4 hr. at 37° C. Solubilization buffer (100 μl, Promega, Madison, Wis.) was added to each well and plates were incubated overnight to allow solubilization of the formazan crystals. Absorbance then was read at 570 nm using a microplate reader.

[3] = biological target: 47 kDa neutrophil cytosol protein (Homo sapiens, UniProt P14598); experiment: Ligand-blot binding assay with biotinylated PR-39, human cytosol; conditions: biotinylated PR-39 probe
p67^phox = experiment: Ligand-blot binding assay with biotinylated PR-39, p67phox; conditions: neutrophil cytosolic proteins probed with biotinylated PR-39
Description: Regulation of neutrophil O2^− production by PR-26 and PR-39. • (i) O2^− production assays. Whole-cell O2^− production by por-cine peripheral blood neutrophils was determined by the superoxide dismutase-inhibitable reduction of ferricytochrome c as previously described (Shi et al., 1994a). Cell-free O2^− production was measured as previously described (Leto et al., 1991) using 96-well plates and a Molecular Devices Thermomax microplate reader (Menlo Park, Calif.). Reactions (100 μl) contained 10^6 cell equivalents of human neutrophil cytosol and 5×10^5 cell equivalents of deoxycholate-solubilized membranes prepared from human peripheral blood neutrophils. Reaction mixtures contained 50 mM potassium phosphate (pH 7), 0.2 mM acetylated cytochrome c, 4 mM MgCl2, 1 mM EGTA, 10 μM FAD, 1 μM GTP-γS, and 200 μM NADPH. The reactions were initiated by addition of 40 μM arachidonic acid. Control reactions contained 5 μg of superoxide dismutase. Superoxide anion generation was calculated based on superoxide dismutase-inhibitable changes in cytochrome c absorbance observed at 551 nm. The reactions were followed for 20 min. after addition of arachidonic acid, with absorbance readings taken at 1-min. intervals. Maximum rates of superoxide generation were calculated from a linear least squares fit of 10 consecutive 1-min. data points. […]

recombinant p47^phox = recombinant p47^phox (Homo sapiens, UniProt P14598); experiment: Competitive ligand-blot binding assay
Description: Competitive ligand-blot assays were performed by incubating recombinant p47^phox (0.02 μM) with or without various concentrations (0.006, 0.06, and 0.6 μM) of PR-39 for 1 hr. at 37° C. and then with biotinylated PR-39 (0.06 μM) for an additional 1 hr. at 37° C. The solutions were dialyzed against ddH2O for 1 hr. at 4° C. before blotting to nitrocellulose (5 μl) and detection with a streptavidin alkaline-phosphatase detection system as described above.

Chain of recombinant p47^phox (P14598 whole entry, species assumed): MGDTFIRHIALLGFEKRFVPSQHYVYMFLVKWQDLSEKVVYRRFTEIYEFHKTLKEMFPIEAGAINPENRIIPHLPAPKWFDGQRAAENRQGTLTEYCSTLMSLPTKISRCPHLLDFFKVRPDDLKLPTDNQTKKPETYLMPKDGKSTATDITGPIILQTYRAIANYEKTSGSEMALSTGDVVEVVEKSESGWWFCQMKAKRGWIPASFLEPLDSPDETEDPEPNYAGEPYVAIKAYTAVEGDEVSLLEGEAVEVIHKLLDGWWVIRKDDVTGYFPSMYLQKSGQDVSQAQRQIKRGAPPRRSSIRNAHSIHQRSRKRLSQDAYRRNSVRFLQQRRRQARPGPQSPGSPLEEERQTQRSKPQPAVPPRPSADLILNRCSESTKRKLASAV
Chain of 47 kDa neutrophil cytosol protein (P14598 whole entry): as the sequence (P14598 whole entry, species assumed) above

Question: `CC[C@H](C)[C@H](NC(=O)[C@H](CCCNC(=N)N)NC(=O)[C@@H]1CCCN1C(=O)[C@@H]1CCCN1C(=O)[C@H](CC(C)C)NC(=O)[C@H](CCCNC(=N)N)NC(=O)[C@@H]1CCCN1C(=O)[C@@H]1CCCN1C(=O)[C@H](Cc1ccccc1)NC(=O)[C@H](Cc1ccccc1)NC(=O)[C@@H]1CCCN1C(=O)[C@@H]1CCCN1C(=O)[C@@H]1CCCN1C(=O)[C@H](CCCNC(=N)N)NC(=O)[C@@H]1CCCN1C(=O)[C@H](CCCNC(=N)N)NC(=O)[C@@H]1CCCN1C(=O)[C@H](CC(C)C)NC(=O)[C@H](Cc1ccc(O)cc1)NC(=O)[C@@H]1CCCN1C(=O)[C@@H]1CCCN1C(=O)[C@H](CCCNC(=N)N)NC(=O)[C@@H]1CCCN1C(=O)[C@H](CCCNC(=N)N)NC(=O)[C@H](CCCNC(=N)N)NC(=O)[C@@H](N)CCCNC(=N)N)C(=O)N1CCC[C@H]1C(=O)N1CCC[C@H]1C(=O)NCC(=O)N[C@@H](Cc1ccccc1)C(=O)N1CCC[C@H]1C(=O)N1CCC[C@H]1C(=O)N[C@@H](CCCNC(=N)N)C(=O)N[C@@H](Cc1ccccc1)C(=O)N1CCC[C@H]1C(=O)N1CCC[C@H]1C(=O)N[C@@H](CCCNC(=N)N)C(=O)N[C@@H](Cc1ccccc1)C(=O)N1CCC[C@H]1C(=O)O` [PR-39] (H-RRRPRPPYLPRPRPPPFFPPRLPPRIPPGFPPRFPPRFP-OH; N-terminus and C-terminus assumed) was tested. Which “antibacterial activity (clear zones on overlaid gel)” value (E. coli, ATCC 25922) did it give?
Answer: antibacterial activity

Question: What about the “antibacterial activity (clear zone on bacterial lawn)” value (E. coli, ATTC 25922) of the same compound?
Answer: had antibacterial activity

Question: And the “antibacterial activity (clear zone on bacterial lawn)” value [1]?
Answer: had antibacterial activity

Question: And the MBC (Salmonella choleraesuis)?
Answer: 4 µM (≈ 18.9 µg/mL)

Question: What about the MIC (Salmonella choleraesuis) of the same compound?
Answer: 2 µM (≈ 9.44 µg/mL)

Question: What about the “concentration at which cytotoxicity occurred” value [2] of the same compound?
Answer: 500 nM

Question: And the “binding to 47 kDa cytosolic protein” value [3]?
Answer: bound

Question: What about the “binding to p67phox” value (p67^phox) of the same compound?
Answer: did not bind

Question: And the “inhibition of binding of biotinylated PR-39 to recombinant p47phox” value (recombinant p47^phox; tenfold excess of unlabeled peptide)?
Answer: completely blocked

Question: What about the “inhibition of binding of biotinylated PR-39 to recombinant p47phox” value (recombinant p47^phox; unlabeled peptide 0.06 μM, equimolar to labeled) of the same compound?
Answer: 90%

Question: And the neutrophil viability (neutrophils)?
Answer: did not affect neutrophil viability

From US7049396B2, “Synthetic peptides that inhibit leukocyte superoxide anion production and/or attract leukocytes” (priority 1995, dated 2006)
